“Also recorded” adds a separate entry of the source. Read-outs that look alike come from different tables or passages of the source. Starred links: 1 amine or outer side, 2 acyl side, 3 side chain; linkers in the order of their positions; H or OH if unused. Positions of bridges follow the written chain, without caps; N, C: chain ends. Non-standard residues stand in square brackets, D forms with d. Chains are numbered I, II in the order given. X1 = O=C(CCOCCOCCOCCN(CCOCCOCCOCCn1cc(CCC(=O)[*:2])nn1)CCOCCOCCOCCn1cc(CCC(=O)[*:3])nn1)[*:1]; TATA = O=C(CC[*:1])N1CN(C(=O)CC[*:2])CN(C(=O)CC[*:3])C1; d1Nal = N[C@H](Cc1cccc2ccccc12)C(=O)O; Hyp = O=C(O)[C@@H]1C[C@@H](O)CN1; hArg = N=C(N)NCCCC[C@H](N)C(=O)O; tBuAla = CC(C)(C)C[C@H](N)C(=O)O; Nle = CCCC[C@H](N)C(=O)O
Tests used:
MC38 #13 tumors [1] = assay: Anti-tumor activity in syngeneic Nectin-4 overexpressing MC38 tumor model (MC38 #13); type: in vivo, C57BL/6J-hCD137 mice; details: for complete tumor responses: day 15; for complete responders: day 52, IV
Procedure: 6-8 weeks old C57BL/6J-hCD137 female mice were inoculated in the flank with 1×10^6 syngeneic Nectin-4 overexpressing MC38 cells (MC38 #13). When tumors reached 72 mm^3 size on average, mice were randomized to receive vehicle or BCY11863 (intraperitoneal administration). BCY11863 was administered (n=6 mice/treatment cohort) at either 1 mg/kg or 10 mg/kg either daily (QD) or every three days (Q3D). QD dosed mice received 16 doses of BCY11863 and Q3D dosed mice received […] of BCY11863. Tumor growth was monitored by caliper measurements until day 69 after treatment initiation. […] By day 48, 22 out of 24 BCY11863-treated animals had responded to the treatment completely and had no palpable tumors remaining.
6-8 week old female C57BL/6J-hCD137 mice [B-hTNFRSF9(CD137) mice; Biocytogen] were implanted subcutaneously with 1×10^6 MC38 #13 (MC38 cells engineered to overexpress murine Nectin-4) cells. Mice were randomized into treatment groups (n=6/cohort) when average tumor volumes reached around 95 mm^3 and were treated with a weekly dose of vehicle (25 mM histidine, 10% sucrose, pH7) or 10 mg/kg BCY11863 with two different dosing schedules for two dosing cycles (5 mg/kg BCY11863 at 0 h and 24 h on DO and D7, or 10 mg/kg at 0 h on DO and D7). All treatments were administered intravenously (IV). Tumor growth was monitored until Day 15 from treatment initiation.
At 3 weekly doses of 3, 10 and 30 mg/kg with dose fractionated weekly, biweekly and daily 6-8 week old female C57BL/6J-hCD137 mice [B-hTNFRSF9(CD137) mice; Biocytogen] were implanted subcutaneously with 1×10^6 MC38 #13 (MC38 cells engineered to overexpress murine Nectin-4) cells. Mice were randomized into treatment groups (n=6/cohort) when average tumor volumes reached around 107 mm^3 and were treated with 21 daily doses of vehicle (25 mM histidine, 10% sucrose, pH7). BCY11863 treatment was done at three different total dose levels (3, 10 and 30 mg/kg total weekly dose) fractionated in three different schedules (QD: daily; BIW: twice a week or QW: weekly). Different BCY11863 treatment cohorts received either 21 daily doses (0.43, 1.4 or 4.3 mg/kg), 6 twice weekly doses (1.5, 5 or 15 mg/kg) or 3 weekly doses (3, 10 or 30 mg/kg). All treatments were administered intravenously (IV). Tumor growth was monitored until tumor reached volumes over 2000 mm^3 or until 31 days after treatment initiation. Complete responders (animals with no palpable tumors) were followed until D52.

CD137 = CD137 (Homo sapiens, UniProt Q07011); assay: CD137 reporter assay (Promega CD137 luciferase reporter, Jurkat cells) in co-culture with Nectin-4-expressing tumor cells; type: cell-based; design: host or cells: Jurkat reporter cells; details: for EC50: Arithmetic mean EC50 (nM)
Sequence of CD137 (Q07011 24-255): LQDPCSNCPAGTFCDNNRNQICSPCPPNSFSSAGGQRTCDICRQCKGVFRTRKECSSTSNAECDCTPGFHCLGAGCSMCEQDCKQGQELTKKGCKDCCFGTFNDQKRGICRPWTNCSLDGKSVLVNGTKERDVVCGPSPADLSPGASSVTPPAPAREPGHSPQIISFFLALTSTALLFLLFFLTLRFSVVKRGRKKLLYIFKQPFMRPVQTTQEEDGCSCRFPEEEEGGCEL

cyno Nectin-4 = assay: SPR direct binding to biotinylated Nectin-4 extracellular domain, cyno
Description: The binding of BCY11863 to its primary target Nectin-4 and CD137 was characterized using surface plasmon resonance (SPR).

MC38 #13 tumors [2] = assay: Re-inoculation of complete responders with MC38 #13 cells (immunogenic memory); type: in vivo, C57BL/6J-hCD137 mice; details: re-inoculated day 69 with 1x10^6 MC38 #13 cells; 22 days observation
Description: On day 69, 5 animals that had responded completely to BCY11863 treatment were re-inoculated with 1×10^6 MC38 #13-cells. A cohort of 5 naïve C57BL/6J-hCD137 female mice were inoculated with 1×10^6 MC38 #13-cells as a control.

human PBMCs = assay: Human PBMC co-culture cytokine secretion assay with EphA2-expressing tumor cells (MC38, HT-1080, HT29); type: cell-based; details: anti-CD3, 48 h, read-out: EC50 of IL-2 cytokine secretion

Compound: CCCC[C@@H]1NC(=O)[C@H](Cc2ccc(O)cc2)NC(=O)[C@@H]2CCCN2C(=O)[C@H](CC(=O)O)NC(=O)[C@H](C)NC(=O)[C@H](Cc2ccccc2)NC(=O)[C@@H]2CSCCC(=O)N3CN(CN(C3)C(=O)CCSC[C@@H](C(=O)N[C@@H](C)C(N)=O)NC1=O)C(=O)CCSC[C@H](NC(C)=O)C(=O)N[C@@H](CC(C)(C)C)C(=O)N1CCC[C@H]1C(=O)N[C@@H](CCC(=O)O)C(=O)N[C@H](CCCCNC(=O)CCc1cn(CCOCCOCCOCCN(CCOCCOCCOCCC(=O)N[C@H]3CSCCC(=O)N4CN5CN(C4)C(=O)CCSC[C@H](NC(=O)[C@@H](CC(=O)O)NC(=O)[C@H](Cc4cccc6ccccc46)NC(=O)[C@@H]4CCCN4C3=O)C(=O)N[C@@H](CCSC)C(=O)N[C@@H](CCCCNC(=N)N)C(=O)N[C@@H](CC(=O)O)C(=O)N[C@@H](Cc3c[nH]c4ccccc34)C(=O)N[C@@H](CO)C(=O)N[C@@H]([C@@H](C)O)C(=O)N3CCC[C@H]3C(=O)N3C[C@H](O)C[C@H]3C(=O)N[C@@H](Cc3c[nH]c4ccccc34)C(=O)N[C@H](C(N)=O)CSCCC5=O)CCOCCOCCOCCn3cc(CCC(=O)NCCCC[C@H]4NC(=O)[C@H](CCC(=O)O)NC(=O)[C@@H]5CCCN5C(=O)[C@H](CC(C)(C)C)NC(=O)[C@@H](NC(C)=O)CSCCC(=O)N5CN6CN(C5)C(=O)CCSC[C@H](NC(=O)[C@H](Cc5ccc(O)cc5)NC(=O)[C@@H]5CCCN5C4=O)C(=O)N[C@@H](Cc4ccccc4)C(=O)N[C@@H](C)C(=O)N[C@@H](CC(=O)O)C(=O)N4CCC[C@H]4C(=O)N[C@@H](Cc4ccc(O)cc4)C(=O)N[C@@H](CCCC)C(=O)N[C@H](C(=O)N[C@@H](C)C(N)=O)CSCCC6=O)nn3)nn1)C(=O)N1CCC[C@H]1C(=O)N[C@@H](Cc1ccc(O)cc1)C(=O)N2 [BCY11863]
- tumor growth (MC38 #13 tumors [1]; 1 or 10 mg/kg, QD or Q3D, ip, p<0.05 vs vehicle, 2 cohorts by day 7, all by day 14): significant reduction
- animals responded completely, no palpable tumors (MC38 #13 tumors [1]; by day 48, all cohorts, 1 or 10 mg/kg, QD or Q3D, ip): 22 out of 24
- complete tumor responses (MC38 #13 tumors [1]; 5 mg/kg at 0 h and 24 h on D0 and D7, IV): 4 out of 6
- complete tumor responses (MC38 #13 tumors [1]; 10 mg/kg at 0 h on D0 and D7, IV): one out of 6
- complete responders (MC38 #13 tumors [1]; 5 mg/kg BIW): 6/6
- complete responders (MC38 #13 tumors [1]; BIW (1.5, 5 or 15 mg/kg)): 15/18
- complete responders (MC38 #13 tumors [1]; QD (0.43, 1.4 or 4.3 mg/kg)): 12/18
- complete responders (MC38 #13 tumors [1]; QW (3, 10 or 30 mg/kg)): 6/18
- EC50 (CD137; co-culture with CT26#7 (mouse)): 0.14 ± 0.07 nM
- EC50 (CD137; co-culture with HT1376 (human), Table 1B): 0.52 ± 0.3 nM
- EC50 (CD137; co-culture with MC38#13 (mouse)): 0.31 ± 0.26 nM
- EC50 (CD137; co-culture with MDA-MB-468 (human)): 0.23 ± 0.01 nM
- EC50 (CD137; co-culture with NCI-H292 (human), Table 1B): 0.28 ± 0.2 nM
- EC50 (CD137; co-culture with NCI-H322 (human)): 0.33 ± 0.21 nM
- EC50 (CD137; co-culture with T47D (human)): 0.42 ± 0.24 nM
- CD137 activation in CD137 reporter assay (CD137; FIG. 1A, Nectin-4 expressing H292 cells): induces strong CD137 activation
- Fold improvement in EC50 over BCY10000 on same plate (CD137; co-culture with NCI-H292): 4.56 fold
- Fold improvement in Emax over BCY10000 on same plate (CD137; co-culture with NCI-H292): 2.16 fold
- Fold Induction over Background (CD137; co-culture with NCI-H292, Table 1A): 81 ± 29 fold
- Kd (cyno Nectin-4; Direct Binding, biotinylated Nectin-4 extracellular domain, 25° C., read-out: SPR KD NHP (25° C.)): 27 ± 15 nM
- Kd (cyno Nectin-4; biotinylated ECD captured on streptavidin chip, read-out: KD): 5 to 27 nM
- tumor development after re-inoculation of complete responders (MC38 #13 tumors [2]): none of the CR mice developed tumors; also recorded: none of the inoculated complete responder mice developed tumors

Compound: I: A[hArg]DC[Hyp]LVNPLCLEP[d1Nal]WTC-NH2 / II: Ac-C[tBuAla]PE[dK]PYCFADPY[Nle]CA-NH2 / III: Ac-C[tBuAla]PE[dK]PYCFADPY[Nle]CA-NH2 (linker I:4-I:11-I:18, II:1-II:8-II:15, III:1-III:8-III:15 via TATA; linker I:N-II:5-III:5 via X1) [BCY13272]
- EC50 (human PBMCs; human PBMC-HT-1080 co-culture): 0.55 ± 0.47 nM
- EC50 (human PBMCs; human PBMC-MC38 co-culture): 0.79 ± 0.24 nM
